# Measured values taken from ChEMBL document CHEMBL3217693, “Synthesis and biological evaluation of 7-arylindoline-1-benzenesulfonamides as a novel class of potent anticancer agents” (Medchemcomm, 2010).
# Experiments:
# [1] = system: HT-29; experiment: Antiproliferative activity against human HT-29 cells assessed as inhibition of cell growth after 72 hrs by methylene blue dye assay; assay type: functional, cell-based; details: HT-29, 72 h
# [2] = Antiproliferative activity against human MKN45 cells assessed as inhibition of cell growth after 72 hrs by methylene blue dye assay; assay type: functional, cell-based; details: MKN-45, 72 h
# [3] = Antiproliferative activity against human KB-VIN10 cells overexpressing P-gp 170/MDR assessed as inhibition of cell growth after 72 hrs by methylene blue dye assay; assay type: functional, cell-based; details: KB-VIN10, 72 h
# [4] = Antiproliferative activity against human H460 cells assessed as inhibition of cell growth after 72 hrs by methylene blue dye assay; assay type: functional, cell-based; details: NCI-H460, 72 h
# [5] = system: KB; experiment: Antiproliferative activity against human KB cells assessed as inhibition of cell growth after 72 hrs by methylene blue dye assay; assay type: functional, cell-based
# [6] = biological target: Tubulin (Bos taurus, UniProt Q6B856+Q862L2+Q862F3); experiment: Inhibition of bovine brain microtubule-associated protein rich tubulin polymerization by turbidimetric assay
# [7] = biological target: T1, Tubulin (UniProt P68371+Q9H4B7+P0DPH7+P68366+Q13509+Q71U36+P04350+Q3ZCM7+P07437+P68363+Q9BQE3+Q6PEY2+Q13885+Q9BVA1+Q9BUF5); experiment: Displacement of [3H]colchicine from long-chain biotin-labeled tubulin (unknown origin) at 5 uM after 2 hrs by competition binding scintillation proximity assay; assay type: protein-complex assay; details: Homo sapiens
# [8] = biological target: T1, Tubulin; experiment: Displacement of [3H]colchicine from long-chain biotin-labeled tubulin (unknown origin) at 1 uM after 2 hrs by competition binding scintillation proximity assay; assay type: protein-complex assay; details: Homo sapiens
SMILES,IC50 [1] [nM],IC50 [5] [nM],IC50 [6] [nM],inhibition [7] [%],inhibition [8] [%],IC50 [2] [nM],IC50 [3] [nM],IC50 [4] [nM]
COc1ccc(S(=O)(=O)N2CCc3cccc(-c4cccnc4)c32)cc1,76.3,95.9,,,,68.5,84.5,89.6
COc1ccc(S(=O)(=O)N2CCc3cccc(-c4c(F)c(F)c(F)c(F)c4F)c32)cc1,3900,4040,,,,1780,4630,4760
COc1ccc(S(=O)(=O)N2CCc3cccc(-c4ccc(F)nc4)c32)cc1,108,143,,,,145,151,135
COc1ccc(S(=O)(=O)N2CCc3cccc(-c4ccncc4)c32)cc1,87.5,96,2200,72,54,69.5,106,101
COc1ccc(S(=O)(=O)N2CCc3cccc(-c4cccs4)c32)cc1,200,214,,,,165,251,229
COc1ccc(S(=O)(=O)N2CCc3cccc(-c4cc(OC)c(OC)c(OC)c4)c32)cc1,5100,3690,,,,1080,4670,6340
COc1ccc(S(=O)(=O)N2CCc3cccc(-c4ccc(F)c(F)c4)c32)cc1,57,45,2300,72,52,55.5,46,46
COc1ccc(S(=O)(=O)N2CCc3cccc(-c4cccc(F)c4)c32)cc1,119,98.5,,,,84.7,92.4,166
COc1cc2c(c(OC)c1OC)-c1ccc(OC)c(=O)cc1[C@@H](NC(C)=O)CC2 [COLCHICINE],,,,,,,121,
COc1ccc(S(=O)(=O)N2CCc3cccc(-c4ccco4)c32)cc1,62.5,82,2600,68,43,42,79.2,94.5

# Continued, in another order:
IC50 [1] [nM],IC50 [5] [nM],IC50 [6] [nM],inhibition [7] [%],inhibition [8] [%],SMILES,IC50 [2] [nM],IC50 [3] [nM],IC50 [4] [nM]
277,337,,,,COc1ccc(-c2cccc3c2N(S(=O)(=O)c2ccc(OC)cc2)CC3)cc1,211,352,302
467,538,,,,COc1ccc(S(=O)(=O)N2CCc3cccc(-c4ccc(N(C)C)cc4)c32)cc1,237,553,556
85.5,86,2500,73,59,COc1ccc(S(=O)(=O)N2CCc3cccc(-c4ccc(F)cc4)c32)cc1,79,94.6,95.5
51.8,52.5,1700,74,56,COc1ccc(S(=O)(=O)N2CCc3cccc(-c4ccc([N+](=O)[O-])cc4)c32)cc1,34,51.3,53.1
300,249,,,,COc1ccc(S(=O)(=O)N2CCc3cccc(-c4ccc(N)cc4)c32)cc1,162,262,288
133,129,,,,COc1ccc(S(=O)(=O)N2CCc3cccc(-c4ccc(O)cc4)c32)cc1,82.6,123,114
96.5,120,,,,COc1ccc(S(=O)(=O)N2CCc3cccc(-c4ccccc4)c32)cc1,117,107,212
24.2,31.1,1500,92,81,COc1ccc(S(=O)(=O)N2CCc3cccc(-c4ccc(C#N)cc4)c32)cc1,17.2,29.2,29.5
